The source of these data is article PMC4071600, “Amino Alcohols from the Ascidian Pseudodistoma sp” (Marine Drugs, 2014).

Bounds are passed on as bounds.

This assay has as its target T1, Na^+/K^+-ATPase.
T1 construct: gene ATP1A1; with Sodium/potassium-transporting ATPase subunit beta-1
As to the kind of experiment: Na+/K+-ATPase inhibition assay (by reference). In kind it is biochemical. An excerpt: Na+/K+-ATPase inhibition assay (by reference) on Na^+/K^+-ATPase
As to `CCCCCCCCC/C=C/[C@H](O)[C@H](C)N` [compound 1, (E)-2-aminotetradec-4-en-3-ol], half-maximal inhibition (IC50) required 62 µM.
As for `CCCCCCCC/C=C/C[C@H](O)[C@H](C)N` [compound 2, Pseudoaminol B], the IC50 – broadly, the point on the concentration scale where inhibition reaches its midpoint – worked out at 78.4 µM.
Next, `CCCCCCC/C=C/C=C/[C@H](O)[C@H](C)N` [compound 3, Pseudoaminol C]: greater than 200 µM; `CCCCCCCC/C=C/C[C@H](O)CN` [compound 4, Pseudoaminol D]: 190 µM.
For `CC/C=C\C/C=C\CC/C=C/C=C/[C@H](O)[C@H](C)N` [compound 5, Pseudoaminol E] the value was 101 µM.
For `CCCCCCCCC/C=C/[C@H](O)[C@H](C)NCC(=O)O` [compound 6, Pseudoaminol F] the value was greater than 200 µM.
For `CC/C=C\C/C=C\CC/C=C/C=C/[C@H](O)[C@H](C)NCC(=O)O` [compound 7, Pseudoaminol G], the IC50 is greater than 200 µM.
`CCCCCCCCC/C=C/[C@@H]1OC(=O)N[C@H]1C` [compound 8, Compound 8] gave an IC50 of 71.4 µM.
With `CCCCCCCCCCC[C@H](O)[C@H](C)N` [compound 9, Compound 9], inhibition was half-maximal at 46.8 µM (IC50).
For `CCCCCCCCCCC[C@H](O)[C@H](C)NC(C)=O` [compound 10, Compound 10] the value was 118 µM; for `CCCCCCCCCCC[C@H](OC(=O)c1ccccc1)[C@H](C)NC(=O)c1ccccc1` [compound 12, Compound 12], 108 µM; for `CCCCCCCCCCC[C@H](O)CN` [compound 13, Compound 13], 130 µM.
`CCCCCCCCCCC[C@H](O)CNC(C)=O` [compound 14, Compound 14] came in with an IC50 greater than 200 µM.
